Assay results: the supplement of paper PMC10307832

How the values were obtained:
Assay in all cases: relative viability (nuclei count vs DMSO), 5 days (fraction); higher = more cells survive
[1] = compound: Cc1nc(Nc2ncc(C(=O)Nc3c(C)cccc3Cl)s2)cc(N2CCN(CCO)CC2)n1 [Dasatinib] + Cc1nc(NC(=O)N2CCC[C@H]2C(N)=O)sc1-c1ccnc(C(C)(C)C(F)(F)F)c1 [Alpelisib] (partner 2 µM)
Summary of the method: (§1)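 Values are medians from duplicate plates. Each reflects relative viability, defined as the nuclei count of treated wells over that of vehicle wells. Lung cancer cell lines in 1536-well plates were pin-tool dosed one day after seeding with one drug alone or with a fixed anchor-drug dose plus five library-drug doses (not always all listed) in √10 steps, then fixed, stained and imaged at 4× after 5 days.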

[2] = compound: Cc1nc(Nc2ncc(C(=O)Nc3c(C)cccc3Cl)s2)cc(N2CCN(CCO)CC2)n1 [Dasatinib] + Cc1cc(Nc2cc(N3CCN(C)CC3)nc(Sc3ccc(NC(=O)C4CC4)cc3)n2)n[nH]1 [Tozasertib] (partner 0.1 µM)
Summary of the method: as §1

[3] = compound: C1CC1C(=O)NC2=NNC3=C2C=CC(=C3)C4=CC(=CC=C4)C(=O)NC5CC5 [XMD13-2] + C[C@]1(O)C[C@@H](c2nc(-c3ccc4ccc(-c5ccccc5)nc4c3)c3c(N)nccn32)C1 [Linsitinib] (partner 1 µM)
Summary of the method: as §1

[4] = compound: C1CC1C(=O)NC2=NNC3=C2C=CC(=C3)C4=CC(=CC=C4)C(=O)NC5CC5 [XMD13-2] + O=C(CCCCCCC(=O)Nc1ccccc1)NO [Vorinostat] (partner 1 µM)
Summary of the method: as §1

Cell Line	relative viability ([1]; first compound 0.005 µM)	relative viability ([1]; first compound 0.01581 µM)	relative viability ([1]; first compound 0.05 µM)	relative viability ([1]; first compound 0.1581 µM)	relative viability ([1]; first compound 0.5 µM)	relative viability ([2]; first compound 0.005 µM)	relative viability ([2]; first compound 0.01581 µM)	relative viability ([2]; first compound 0.05 µM)	relative viability ([2]; first compound 0.1581 µM)	relative viability ([2]; first compound 0.5 µM)	relative viability ([3]; first compound 0.05 µM)	relative viability ([3]; first compound 0.1581 µM)	relative viability ([3]; first compound 0.5 µM)	relative viability ([3]; first compound 1.581 µM)	relative viability ([3]; first compound 5 µM)	relative viability ([4]; first compound 0.05 µM)	relative viability ([4]; first compound 0.1581 µM)	relative viability ([4]; first compound 0.5 µM)	relative viability ([4]; first compound 1.581 µM)	relative viability ([4]; first compound 5 µM)
NCI-H647	0.779	0.419	0.319	0.166	0.146	0.265	0.288	0.128	0.0973	0.0474	1.33	1.22	1.15	1.17	1.09	0.706	0.59	0.822	0.746	0.425
NCI-H650	1.16	1.05	1.04	0.726	0.428	0.705	0.665	0.755	0.619	0.42	0.983	0.857	0.899	0.718	0.865	0.526	0.416	0.46	0.348	0.497
NCI-H661	0.538	0.584	0.424	0.271	0.254	0.348	0.34	0.324	0.323	0.295	0.67	0.708	0.58	0.555	0.398	0.811	0.75	0.75	0.825	0.563
NCI-H727	0.453	0.375	0.397	0.219	0.234	0.607	0.523	0.606	0.379	0.185	0.219	0.25	0.439	0.312	0.25	1.23	1.09	1.41	1.33	1.22
NCI-H838	0.82	0.678	0.585	0.308	0.233	0.279	0.292	0.245	0.179	0.2	1.14	1.03	1.05	1.06	0.985	0.839	0.661	0.756	0.713	0.763
NCI-H1355	0.674	0.621	0.652	0.53	0.297	0.585	0.421	0.459	0.401	0.347	0.973	0.834	0.851	0.825	0.894	0.704	0.601	0.694	0.624	0.638
NCI-H1395	0.896	0.926	0.947	0.544	0.519	0.819	0.713	0.723	0.555	0.4	1.06	0.984	1	1.11	1.28	0.732	0.871	0.651	0.594	0.707
NCI-H1437	1.03	0.893	1.03	0.735	0.513	0.431	0.38	0.394	0.32	0.314	1.25	1.09	1.08	1.04	1.06	0.879	0.815	0.756	0.793	0.786
